Measurements taken from patent US20070208087A1, “Compounds, compositions and methods for the treatment of inflammatory diseases” (priority 2001, published 2007).
Values joined by “and” are separate entries in the source; they are usually repeats but may differ in a detail not shown here. Identical values can stand only once. Like-named read-outs stand apart in the source and are kept apart here.

Experiments:
[1] = system: EOC 13.31 microglia cells; assay: NO release inhibition in LPS/IFNγ stimulated microglia, concurrent treatment, Griess reaction at 24 hours (Example 6); format: cell-based; details: for NO release, Avg / inhibition at 50 µM: 24 hours; for inhibition at 50 µM: Microglia
Method in brief: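 Confluent EOC 13.31 microglia were given 50 μM compound together with 1 pg/ml LPS plus 1 ng/ml IFNγ, or without stimulation. NO release was quantified spectrophotometrically by Griess reaction 24 hours later.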

[2] = system: EOC 13.31 microglial cells; assay: NO release inhibition screen in LPS/IFNγ stimulated microglia, Griess reaction at 48 hours (Example 7); format: cell-based; details: for inhibition at 50 µM: Microglia, 48 h
Method in brief: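 EOC 13.31 microglia, confluent at 24 h, stimulated with 10 μg/ml LPS plus 10 ng/ml IFNγ in presence of 50 uM test compound. Nitric oxide release quantified by Griess reaction at 48 hours.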

[3] = Compound Only (without LPS/IFNγ), 50 μM
[4] = Compound + LPS/IFNγ, read-out: % inhibition of NO release
[5] = Table 2 summary, LPS/IFNγ, read-out: % Inhibition (summary of inhibition of NO release)

SMILES | NO release, Avg ([1]; Compound + LPS/IFNγ, 50 μM) | NO release, Avg [1, 3] | inhibition at 50 µM [1, 4] | inhibition at 50 µM [1, 5] | μM NO release Avg ([2]; 50 uM + 10 μg/ml LPS/10 ng/ml IFNγ, 48 hours) | % inhibition ([2]; 50 uM + 10 μg/ml LPS/10 ng/ml IFNγ, 48 hours, single replicates, 50 µM) | inhibition of NO release, in words ([2]; 50 uM, LPS/IFNγ stimulated microglia) | inhibition at 50 µM ([2]; 50 uM + 10 μg/ml LPS/10 ng/ml IFNγ, 48 hours, read-out: Avg. % Inhibition) | inhibition at 50 µM ([2]; 50 uM + 10 μg/ml LPS/10 ng/ml IFNγ, 48 hours, single replicates, read-out: % inhibition) | inhibition of NO release, in words ([1]; 50 μM, LPS/IFNγ stimulated microglial cells)
O=C(NCc1ccc(O)c(O)c1)C(=Cc1ccc(O)c(O)c1)NC(=O)c1ccc(O)c(O)c1 [Compound 21, α-(3,4-dihydroxybenzamido)-3,4-dihydroxycinnamic acid 3,4-dihydroxybenzyl amide] | 15.3486 µM | -0.0417 µM | 17.6% | 17.6% | – | – | – | – | – | –
Oc1ccc(CNCc2ccc(O)c(O)c2)cc1O [Compound 73, bis(3,4-dihydroxybenzyl)amine] | – | – | – | – | 2.301 µM | 83.62% and 94.98% | effective inhibitors of NO release | 91.7% | 96.5% | –
O=C(N[C@@H]1CCCC[C@H]1NC(=O)c1ccc(O)c(O)c1)c1ccc(O)c(O)c1 (relative stereo) [Compound 26, N,N′-bis(3,4-dihydroxybenzoyl)-trans-1,2-diaminocyclohexane] | 14.8384 µM | 0.0000 µM | 20.3% | 20.3% | – | – | – | – | – | very effective inhibitors of NO release
